Results reported in ChEMBL document CHEMBL1128368, “Synthesis and serotonergic activity of N,N-dimethyl-2-[5-(1,2,4-triazol-1-ylmethyl)-1H-indol-3-yl]ethylamine and analogues: potent agonists for 5-HT1D receptors” (J Med Chem, 1995).

What was measured:
5-HT2C receptors [1] = molecular target: T1, 5-HT2C receptors (Sus scrofa, UniProt K7GSR7); experiment: Binding activity against 5-hydroxytryptamine 2C receptor from pig cortex membrane using [3H]mesulergine as radioligand.
Oryctolagus cuniculus = species: Oryctolagus cuniculus; experiment: Functional activity was determined by the contraction of New Zealand white rabbit saphenous vein.
[2] = molecular target: T2, Serotonin 3 (5-HT3) receptor (Rattus norvegicus, UniProt P35563+Q9JJ16); experiment: Inhibition of [3H]-Q-ICS 205-930 binding to rat cortex homogenate 5-hydroxytryptamine 3 receptor
T2 sequence (P35563 whole entry): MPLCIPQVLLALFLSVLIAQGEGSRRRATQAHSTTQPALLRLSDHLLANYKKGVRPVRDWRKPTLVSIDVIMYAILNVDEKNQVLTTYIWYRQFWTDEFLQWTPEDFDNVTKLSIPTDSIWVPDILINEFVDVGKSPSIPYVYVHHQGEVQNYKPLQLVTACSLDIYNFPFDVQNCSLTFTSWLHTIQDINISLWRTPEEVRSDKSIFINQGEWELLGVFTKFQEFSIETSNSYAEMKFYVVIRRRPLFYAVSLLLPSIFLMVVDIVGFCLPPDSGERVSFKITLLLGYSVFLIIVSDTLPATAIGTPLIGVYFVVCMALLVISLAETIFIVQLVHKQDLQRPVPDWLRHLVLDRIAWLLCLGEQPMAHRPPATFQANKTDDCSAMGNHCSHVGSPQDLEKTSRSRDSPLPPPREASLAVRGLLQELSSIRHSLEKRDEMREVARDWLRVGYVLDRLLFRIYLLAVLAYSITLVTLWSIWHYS
T2 sequence (Q9JJ16 whole entry): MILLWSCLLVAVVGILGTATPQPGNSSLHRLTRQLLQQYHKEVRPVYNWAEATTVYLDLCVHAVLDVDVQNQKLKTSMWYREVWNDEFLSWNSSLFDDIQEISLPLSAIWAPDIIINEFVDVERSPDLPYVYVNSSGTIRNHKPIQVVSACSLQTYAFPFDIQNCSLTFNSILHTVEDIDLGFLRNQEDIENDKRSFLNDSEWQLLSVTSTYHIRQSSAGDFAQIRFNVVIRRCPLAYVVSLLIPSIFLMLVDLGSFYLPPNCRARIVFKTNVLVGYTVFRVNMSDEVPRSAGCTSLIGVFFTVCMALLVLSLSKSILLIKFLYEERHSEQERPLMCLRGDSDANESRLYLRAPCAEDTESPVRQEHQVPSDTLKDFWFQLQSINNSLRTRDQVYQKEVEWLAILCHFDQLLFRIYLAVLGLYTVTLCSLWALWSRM

[3] = Binding activity against 5-hydroxytryptamine 2C receptor from pig cortex membrane using [3H]mesulergine as radioligand.
[4] = Partition coefficient (logD7.4); conditions: octanol/water, pH 7.4
[5] = molecular target: 5-hydroxytryptamine receptor 1D (Sus scrofa, UniProt P79400); experiment: Binding activity against 5-hydroxytryptamine 1D receptor from pig caudate membrane using [3H]5-HT as radioligand
5-HT2C receptors [6] = molecular target: T1, 5-HT2C receptors; experiment: Binding activity against 5-hydroxytryptamine 2C receptor from pig cortex membrane using [3H]mesulergine as radioligand; NA Not Available
[7] = molecular target: T2, Serotonin 3 (5-HT3) receptor; experiment: Binding activity radioligand.; assay type: protein-complex assay
[8] = molecular target: Serotonin 3 (5-HT3) receptor; experiment: Binding activity against 5-hydroxytryptamine 1A receptor from human brain cortex using [3H]8-OH-DPAT[…] radioligand.

Sequence of 5-hydroxytryptamine receptor 1D (P79400 whole entry): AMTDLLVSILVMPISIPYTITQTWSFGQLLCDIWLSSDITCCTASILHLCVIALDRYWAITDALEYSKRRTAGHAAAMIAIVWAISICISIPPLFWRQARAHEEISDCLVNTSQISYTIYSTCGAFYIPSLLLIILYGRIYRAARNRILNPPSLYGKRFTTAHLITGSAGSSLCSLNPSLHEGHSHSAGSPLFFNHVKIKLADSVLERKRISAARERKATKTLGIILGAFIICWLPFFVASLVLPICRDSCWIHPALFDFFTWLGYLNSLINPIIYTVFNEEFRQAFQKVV

| Structure (SMILES) | IC50 (5-HT2C receptors [1]) [nM] | EC50 (Oryctolagus cuniculus) [nM] | IC50 [2] [nM] | logD [4] | other results |
| --- | --- | --- | --- | --- | --- |
| CN(C)CCc1c[nH]c2ccc(-n3cncn3)cc12 | 10000 | 63.1 | 10000 |  |  |
| CN(C)CCc1c[nH]c2ccc(Cc3nc(N)no3)cc12 | 398 |  |  |  | pIC50 [3]: 5.9 |
| CN(C)CCc1c[nH]c2ccc(Cc3nnn(C)n3)cc12 | 2510 | 1000 | 2510 |  |  |
| Cc1nccn1Cc1ccc2[nH]cc(CCN(C)C)c2c1 | 7940 | 631 | 1580 |  |  |
| CN(C)CCc1c[nH]c2ccc(Cc3ncn(C)n3)cc12 |  |  |  | -1.01 | IC50 [5]: 200 nM |
| CN(C)CCc1c[nH]c2ccc(Cc3ncnn3C)cc12 | 3980 | 631 | 10000 | -0.75 |  |
| CN(C)CCc1c[nH]c2ccc(Cn3nccn3)cc12 |  |  |  | -0.2 | IC50 [5]: 251 nM |
| CN(C)CCc1c[nH]c2ccc(Cc3nnnn3C)cc12 | > 10000 | 251 | 5010 |  |  |
| CN(C)CCc1c[nH]c2ccc(Cn3cnnn3)cc12 | 5010 | 200 | 1260 |  |  |
| Cc1nccn1-c1ccc2[nH]cc(CCN(C)C)c2c1 | > 10000 | 158 | 3160 | -0.13 |  |
| CCn1nnc(Cc2ccc3[nH]cc(CCN(C)C)c3c2)n1 | 1580 | 631 | 2510 |  |  |
| CN(C)CCc1c[nH]c2ccc(Cc3nncn3C)cc12 | > 10000 |  |  |  |  |
| CN(C)CCc1c[nH]c2ccc(Cn3ccnn3)cc12 |  | 1000 |  |  | IC50 (5-HT2C receptors [6]): 6310 nM |
| CCn1nnnc1Cc1ccc2[nH]cc(CCN(C)C)c2c1 | > 10000 | 398 | > 10000 |  |  |
| CN(C)CCc1c[nH]c2ccc(Cn3ncnn3)cc12 | 2000 | 200 | 3160 | -0.34 |  |
| CN(C)CCc1c[nH]c2ccc(Cc3nnn[nH]3)cc12 | > 10000 |  |  |  |  |
| CN(C)CCc1c[nH]c2ccc(Cn3ccnc3)cc12 | 3160 | 501 | 1260 | -0.53 |  |
| CN(C)CCc1c[nH]c2ccc(Cn3cncn3)cc12 [RIZATRIPTAN] | 6310 | 251 |  | -0.74 | IC50 [7]: 3980 nM; pIC50 [8]: < 5 |
